{"source": "patent US12390470B2", "about": "“1-methylxanthine-based bioactive composition and method of use thereof” (Ingenious Ingredients, LP, priority 2021, dated 2025)", "key": {"kidneys of Wistar rats": {"test_system": "kidneys of Wistar rats", "details": "cited from earlier work"}, "participants [1]": {"test_system": "participants", "test": "Systolic blood pressure, crossover vs caffeine", "type": "in vivo, human", "description": "(§1) All supplements were orally ingested with 8 fluid ounces of cold tap water."}, "participants [2]": {"test_system": "participants", "test": "Anxiety by Visual Analog Scale", "type": "in vivo, human", "protocol": "All supplements were orally ingested with 8 fluid ounces of cold tap water. Anxiety was measured by Visual Analog Scale (VAS) at baseline, 30, 60, 90, 120 and 180 minutes after ingestion."}, "participants [3]": {"test_system": "participants", "test": "Resting heart rate, crossover vs caffeine", "type": "in vivo, human", "description": "as §1"}, "participants [4]": {"test_system": "participants", "test": "Respiratory quotient, placebo-controlled crossover", "type": "in vivo, human", "protocol": "All supplements were orally ingested with 8 fluid ounces of cold tap water. The order of administration for all interventions was randomized using a random allocation software to ensure randomization and to avoid order effects. After ingestion, participants completed all assessments in an identical fashion 30, 60, 90, 120, and 180 minutes after ingestion of their assigned supplement. All study visits took place between 0600-1000 hours. At least 72 hours of rest will take place between each condition.\nThe lower the RQ, the more fat that is being oxidized for body energy needs. The closer to 1.0 the more carbohydrate is being burned for energy needs. If numbers are lower more fat is being oxidized."}, "participants [5]": {"test_system": "participants", "test": "Diastolic blood pressure, crossover vs caffeine", "type": "in vivo, human", "protocol": "All supplements were orally ingested with 8 fluid ounces of cold tap water. Resting Heart Rate, Systolic and Diastolic Blood Pressure was measured at baseline, 30, 60, 90, 120 and 180 minutes after ingestion."}, "[6]": {"details": "Person one, time 0, 200 mg oral"}, "[7]": {"details": "Person two, time 0, 200 mg oral"}}, "note": "Read-outs that look alike come from different tables or passages of the source.", "data": [{"smiles": "Cn1c(=O)[nH]c(=O)c2[nH]cnc21", "note": "[3-methylxanthine]", "values": [{"measurement": "serum urea", "setting": "kidneys of Wistar rats; 100 mg kg^−1, after 16 days", "value": "Elevated values of serum urea were found"}, {"measurement": "Tubular necrosis", "setting": "kidneys of Wistar rats; 100 mg kg^−1 per day oral, after 16 days", "value": "Tubular necrosis was noticed"}, {"measurement": "serum urea", "setting": "kidneys of Wistar rats; 200 mg kg^−1, after 1 day", "value": "Elevated values of serum urea were found"}, {"measurement": "serum creatinine", "setting": "kidneys of Wistar rats; 200 mg kg^−1, after 8 days", "value": "Elevated values of serum creatinine were detected"}, {"measurement": "Tubular necrosis", "setting": "kidneys of Wistar rats; 200 mg kg^−1 per day oral, after 8 days", "value": "Tubular necrosis was noticed"}, {"measurement": "overall renal outcome", "setting": "kidneys of Wistar rats; 50-200 mg per kg per day, 1-16 days", "value": "dose- and time-related renal failure"}]}, {"smiles": "Cn1c(=O)c2c(ncn2C)n(C)c1=O", "note": "[caffeine, reference compound]", "values": [{"measurement": "Systolic Blood Pressure MEAN (30-180)", "setting": "participants [1]; Person one", "value": 130.0, "unit": "mm Hg"}, {"measurement": "Systolic Blood Pressure MEAN (30-180)", "setting": "participants [1]; Person two", "value": 119.6, "unit": "mm Hg"}, {"measurement": "Anxiety (VAS) MEAN (30-180)", "setting": "participants [2]; Average", "value": 74.4}, {"measurement": "Anxiety (VAS) Mean Δ from 0", "setting": "participants [2]; Average, listed as CA", "value": 65, "unit": "%"}, {"measurement": "Anxiety (VAS) MEAN (30-180)", "setting": "participants [2]; Person one", "value": 74.6}, {"measurement": "Anxiety (VAS) Mean Δ from 0", "setting": "participants [2]; Person one", "value": "+44.6"}, {"measurement": "Anxiety (Visual Analog Scale)", "setting": "participants [2]; Person one, 30 min", "value": 61}, {"measurement": "Anxiety (Visual Analog Scale)", "setting": "participants [2]; Person one, 60 min", "value": 80}, {"measurement": "Anxiety (Visual Analog Scale)", "setting": "participants [2]; Person one, 90 min", "value": 80}, {"measurement": "Anxiety (Visual Analog Scale)", "setting": "participants [2]; Person one, 120 min", "value": 71}, {"measurement": "Anxiety (Visual Analog Scale)", "setting": "participants [2]; Person one, 180 min", "value": 81}, {"measurement": "Anxiety (Visual Analog Scale)", "setting": "participants [2]; [6]", "value": 30}, {"measurement": "Anxiety (VAS) MEAN (30-180)", "setting": "participants [2]; Person two", "value": 74.2}, {"measurement": "Anxiety (VAS) Mean Δ from 0", "setting": "participants [2]; Person two", "value": "+14.2"}, {"measurement": "Anxiety (Visual Analog Scale)", "setting": "participants [2]; Person two, 30 min", "value": 70}, {"measurement": "Anxiety (Visual Analog Scale)", "setting": "participants [2]; Person two, 60 min", "value": 75}, {"measurement": "Anxiety (Visual Analog Scale)", "setting": "participants [2]; Person two, 90 min", "value": 76}, {"measurement": "Anxiety (Visual Analog Scale)", "setting": "participants [2]; Person two, 120 min", "value": 75}, {"measurement": "Anxiety (Visual Analog Scale)", "setting": "participants [2]; Person two, 180 min", "value": 75}, {"measurement": "Anxiety (Visual Analog Scale)", "setting": "participants [2]; [7]", "value": 60}, {"measurement": "Resting Heart Rate Mean Δ from 0", "setting": "participants [3]; Average, listed as CA", "value": 10, "unit": "%"}, {"measurement": "Resting Heart Rate Mean Δ from 0", "setting": "participants [3]; Person one", "value": "+6.2 bpm"}, {"measurement": "Resting Heart Rate", "setting": "participants [3]; Person one, 30 min", "value": 64, "unit": "bpm"}, {"measurement": "Resting Heart Rate", "setting": "participants [3]; Person one, 60 min", "value": 56, "unit": "bpm"}, {"measurement": "Resting Heart Rate", "setting": "participants [3]; Person one, 90 min", "value": 51, "unit": "bpm"}, {"measurement": "Resting Heart Rate", "setting": "participants [3]; Person one, 120 min", "value": 61, "unit": "bpm"}, {"measurement": "Resting Heart Rate", "setting": "participants [3]; Person one, 180 min", "value": 44, "unit": "bpm"}, {"measurement": "Resting Heart Rate", "setting": "participants [3]; [6]", "value": 49, "unit": "bpm"}, {"measurement": "Resting Heart Rate Mean Δ from 0", "setting": "participants [3]; Person two", "value": "+4.6 bpm"}, {"measurement": "Resting Heart Rate", "setting": "participants [3]; Person two, 30 min", "value": 65, "unit": "bpm"}, {"measurement": "Resting Heart Rate", "setting": "participants [3]; Person two, 60 min", "value": 62, "unit": "bpm"}, {"measurement": "Resting Heart Rate", "setting": "participants [3]; Person two, 90 min", "value": 62, "unit": "bpm"}, {"measurement": "Resting Heart Rate", "setting": "participants [3]; Person two, 120 min", "value": 64, "unit": "bpm"}, {"measurement": "Resting Heart Rate", "setting": "participants [3]; Person two, 180 min", "value": 69, "unit": "bpm"}, {"measurement": "Resting Heart Rate", "setting": "participants [3]; [7]", "value": 59, "unit": "bpm"}, {"measurement": "Respiratory Quotient MEAN (30-180)", "setting": "participants [4]; Average", "value": 0.701}, {"measurement": "Respiratory Quotient MEAN (30-180)", "setting": "participants [4]; Person one", "value": 0.704}, {"measurement": "Respiratory Quotient", "setting": "participants [4]; Person one, 30 min after ingestion", "value": 0.70}, {"measurement": "Respiratory Quotient", "setting": "participants [4]; Person one, 60 min", "value": 0.65}, {"measurement": "Respiratory Quotient", "setting": "participants [4]; Person one, 90 min", "value": 0.70}, {"measurement": "Respiratory Quotient", "setting": "participants [4]; Person one, 120 min", "value": 0.74}, {"measurement": "Respiratory Quotient", "setting": "participants [4]; Person one, 180 min", "value": 0.73}, {"measurement": "Respiratory Quotient", "setting": "participants [4]; [6]", "value": 0.68}, {"measurement": "Respiratory Quotient MEAN (30-180)", "setting": "participants [4]; Person two", "value": 0.698}, {"measurement": "Respiratory Quotient", "setting": "participants [4]; Person two, 30 min", "value": 0.70}, {"measurement": "Respiratory Quotient", "setting": "participants [4]; Person two, 60 min", "value": 0.71}, {"measurement": "Respiratory Quotient", "setting": "participants [4]; Person two, 90 min", "value": 0.71}, {"measurement": "Respiratory Quotient", "setting": "participants [4]; Person two, 120 min", "value": 0.71}, {"measurement": "Respiratory Quotient", "setting": "participants [4]; Person two, 180 min", "value": 0.66}, {"measurement": "Respiratory Quotient", "setting": "participants [4]; [7]", "value": 0.76}, {"measurement": "Diastolic Blood Pressure MEAN (30-180)", "setting": "participants [5]; Average", "value": 80.2, "unit": "mm Hg"}, {"measurement": "Diastolic Blood Pressure Mean Δ from 0", "setting": "participants [5]; Average, listed as CA", "value": 20.3, "unit": "%"}, {"measurement": "Diastolic Blood Pressure MEAN (30-180)", "setting": "participants [5]; Person one", "value": 78.6, "unit": "mm Hg"}, {"measurement": "Diastolic Blood Pressure Mean Δ from 0", "setting": "participants [5]; Person one", "value": "+18.6 mm Hg"}, {"measurement": "Diastolic Blood Pressure", "setting": "participants [5]; Person one, 30 min", "value": 77, "unit": "mm Hg"}, {"measurement": "Diastolic Blood Pressure", "setting": "participants [5]; Person one, 60 min", "value": 80, "unit": "mm Hg"}, {"measurement": "Diastolic Blood Pressure", "setting": "participants [5]; Person one, 90 min", "value": 83, "unit": "mm Hg"}, {"measurement": "Diastolic Blood Pressure", "setting": "participants [5]; Person one, 120 min", "value": 77, "unit": "mm Hg"}, {"measurement": "Diastolic Blood Pressure", "setting": "participants [5]; Person one, 180 min", "value": 76, "unit": "mm Hg"}, {"measurement": "Diastolic Blood Pressure", "setting": "participants [5]; [6]", "value": 60, "unit": "mm Hg"}, {"measurement": "Diastolic Blood Pressure MEAN (30-180)", "setting": "participants [5]; Person two", "value": 81.8, "unit": "mm Hg"}, {"measurement": "Diastolic Blood Pressure Mean Δ from 0", "setting": "participants [5]; Person two", "value": "+8.8 mm Hg"}, {"measurement": "Diastolic Blood Pressure", "setting": "participants [5]; Person two, 30 min", "value": 77, "unit": "mm Hg"}, {"measurement": "Diastolic Blood Pressure", "setting": "participants [5]; Person two, 60 min", "value": 96, "unit": "mm Hg"}, {"measurement": "Diastolic Blood Pressure", "setting": "participants [5]; Person two, 90 min", "value": 84, "unit": "mm Hg"}, {"measurement": "Diastolic Blood Pressure", "setting": "participants [5]; Person two, 120 min", "value": 75, "unit": "mm Hg"}, {"measurement": "Diastolic Blood Pressure", "setting": "participants [5]; Person two, 180 min", "value": 77, "unit": "mm Hg"}, {"measurement": "Diastolic Blood Pressure", "setting": "participants [5]; [7]", "value": 73, "unit": "mm Hg"}]}]}
